Data on 2 molecules can be found in patent US20080199441A1, “Use of ex-vivo cultured hematopoietic cells for treatment of peripheral vascular diseases” (priority 2006, published 2008).

The subject of test [1] is cord-blood-derived, bone marrow-derived, and peripheral blood derived hematopoietic cells. To be noted: grown without a feeder layer; cited from earlier work.
In test [2] the test system is hematopoietic stem/progenitor cells (CD34+ or CD133+). Put plainly: Ex vivo expansion of hematopoietic cells. To be noted: cultured with cytokines plus inhibitor, compared to cells cultured with cytokines alone. It is filed as cell-based, human. How it is done:
Cell cultures of human hematopoietic cells: Human umbilical cord blood cells were obtained from umbilical cord blood after normal full-term delivery (informed consent was given). MPB, or BM were obtained from donations (informed consent was given). Samples were either used fresh or collected and frozen according to well known cord blood cryopreservation protocol (Rubinstein et al. 1995) within 24 hours postpartum for UCB or according to common practice regarding MPB and BM. Prior to cryopreservation, blood was sedimented for 30 minutes on […] Starch (hydroxyethyl starch) to remove most RBC. Prior to their use, the cells were thawed in Dextran buffer (Sigma, St. Louis, Mo., USA) containing 2.5% human serum albumin (HSA)(Bayer Corp. Elkhart, Ind., USA) and processed as described herein below. Following thawing, where indicated, the leukocyte-rich fraction was harvested and layered on Ficoll-Hypaque gradient (1.077 g/mL; Sigma Inc, St Louis Mo., USA), and centrifuged at 400×g for 30 minutes. The mononuclear cell fraction in the interface layer was then collected, washed three times, and re-suspended in phosphate-buffered saline (PBS) (Biological Industries, Bet HaEmek, Israel) containing 0.5% human serum albumin (HSA) (Bayer Corp. Elkhart, Ind., USA). […] The purity of the CD133^+ populations thus obtained was 80-95%, as evaluated by flow cytometry. […]

As to `NCCNCCNCCNCCN` [TEPA, tetraethylpentamine], the “fraction of CD34+ cells and long-term clonability” value in test [1] is “greatly enhanced the fraction of CD34^+ cell and their long-term clonability”. `NC(=O)c1cccnc1` [nicotinamide]: the “enrichment of stem/early progenitor cell subsets (CD34+CD38− and CD34+Lin−) in cultured population” value in test [2] is “enriched with subsets of stem/early progenitor cells”.
